Results from patent US20050175644A1, “Preparation for oxidation-sensitive compounds and method for making same” (priority 2002, published 2005).

How the values were obtained:
lipid-coated viruses = details: against lipid-coated viruses; cited from earlier work
[1] = stability of BHT in the preparation on storage, liquid chromatography; assay type: physicochemical
Protocol: Finally, the stability of BHT in a preparation according to the invention was tested: • a container with 40 kg of preparation, covered with a simple lid without any special packaging such as the addition of an inert gas (e.g. nitrogen), was placed in storage for three yeas.

[2] = test system: transformed human keratinocytes (cell line TR 146); assay: acute ocular tolerance on reconstituted corneas ([…] model), MTT cell viability test; assay type: cell-based; design: key to Colour of the two cultures: deep blue/purple colour when they are viable; white/yellow in colour if cell death occurs
Protocol: To start with, the product was evaluated in terms of its capacity to trigger cytopathic effects on corneas reconstituted by means of in vitro transformed keratinocytes cultures.
When they are cultured at the air-liquid interface in a specific medium, transformed human keratinocytes (cell line TR 146) form epithelial tissue without a corneal layer, similar to the human eye.
A sample of the product to be studied (30 μl) was deposited on each of the six equivalent reconstituted corneal cultures and spread out using a thin brush.
Two cultures were then incubated at 37° C., 5% CO2 for 10 minutes, 1 hour, 3 hours and 24 hours.
Negative controls substances (buffered phosphate saline solution A) and positive controls substances (0.4% SDS for “sodium dodecyl sulfate” in solution A) were prepared under sterile conditions and deposited simultaneously on the other two cultures. These cultures were incubated for one hand 24 hours. […]
Cell viability was measured qualitatively after staining. […]
After incubation for 30 minutes at room temperature, each culture's colour is observed and recorded: • negative control cultures should be a deep blue/purple colour, evidence of the viability of cells in the basal layer after 24 hours in contact, • positive control cultures should be white, evidence of cell death from the first hour of contact.

Row | Compound | antiviral properties (lipid-coated viruses) | BHT concentrations by liquid chromatography ([1]; 40 kg of preparation in a container with simple lid, no inert gas, stored three years) | stability of BHT in a preparation according to the invention ([1]; storage for three years) | Colour of the two cultures ([2]; 1 hour contact, MTT) | Toxicity ([2]; interpretation of the colours at 10 min, 1, 3 and 24 hours)
1 | CC(C)(C)c1cc(C(=O)OCCOCCOCCOCCOCCOCCOCCOCCO)cc(C(C)(C)C)c1O [AVF1, octaoxyethyleneglycol 3,5-di-tert-butyl-4-hydroxybenzoate] | antiviral properties | – | – | – | –
2 | CC(C)(C)c1cc(C(=O)O)cc(C(C)(C)C)c1O [BG4, 3,5-di-tert-butyl-4-hydroxybenzoic acid] | antiviral properties | – | – | – | –
3 | Cc1cc(C(C)(C)C)c(O)c(C(C)(C)C)c1 [BHT, 3,5-di-tert-butyl-4-hydroxytoluene] | antiviral properties | remained the same | excellent | – | –
4 | CCCCCCCCCCCCOS(=O)(=O)[O-].[Na+] [Positive control, sodium dodecyl sulfate] | – | – | – | white | VI (very irritant (VI): white at 10 minutes, 1 hour, 3 hours and 24 hours)
